Measured values from US10195196B2, “1,4-disubstituted pyridazine analogs there of and methods for treating SMN-deficiency-related conditions” (NOVARTIS AG, priority 2012, dated 2019).

System: SMN protein
Test: cellular SMN ELISA (SMN protein elevation)
Assay type: cell-based
Details: myoblast cell line from SMNdelta7 mouse model, 24 hours treatment; for SMN activity Fold: fold activation over DMSO control
Method: A cellular SMN ELISA was used to measure the effects of low molecular weight compounds on SMN protein elevation. Cells from a myoblast cell line derived from the SMNdelta7 mouse model (kind gift from Steve Burden, NYU) were seeded into a 384-well plate at a density of 3000 cells/well and treated with compounds for 24 hours. ELISA capture plates were prepared by coating 384-well plates (Immulon 4HBX) with 0.5 ug/mL of anti-SMN mAb (BD Science, Catalog number 610647) at 4° C. overnight. The plates were washed 5 times with 110 uL of PBS-Tween (0.05% Tween-20, PBST), blocked with 100 uL of 1% BSA in PBST for 2 hours and washed (5 times) with 100 uL of PBST. After 24 hours of compound treatment cells were lysed in a modified RIPA-buffer, on ice for 1 hour. 20 uL of lysate and 20 uL of 1% BSA were then added to the ELISA capture plates and incubated at 4° C. overnight. Plates were washed (5 times) with PBST and then incubated with 1:100 dilution of primary rabbit anti-SMN polyclonal antibody (Santa cruz, Catalog number SC-15320) at room temperature for 1 hour and subsequently washed (5 times) with 110 uL of PBST. This was followed by addition of 1:100 Goat anti-Rabbit IgG-HRP linked (Cell Signaling, Catalog number 7074) secondary antibody for 1 hour. Plates were then washed with PBST and incubated with 40 uL TMB substrate (Cell Signaling, Catalog number 7004L) at room temperature for 1-10 minutes with shaking. The reaction was stopped by addition of 40 uL of stop solution (Cell signaling, Catalog number 7002L) and absorption was measured at 450 nm. Data was reported as fold activation over DMSO control, and EC50.
ELISA assay condition 1: compound concentration range 20 nM-10 uM; ELISA assay condition 2: compound concentration 100 pM-10 uM.

[1] = ELISA condition 2: compound concentration 100 pM-10 uM
[2] = ELISA condition 1: compound concentration range 20 nM-10 uM

Row | EC50 [2] [nM] | Structure (SMILES) | EC50 [1] [nM] | SMN activity Fold [1] [Fold] | SMN activity Fold [2] [Fold]
1 |  | CN(c1ccc(-c2ccc(-c3cncn3C)cc2O)nn1)C1CC(C)(C)NC(C)(C)C1 [Example 42-7, 2-(6-(methyl(2,2,6,6-tetramethylpiperidin-4-yl)amino)pyridazin-3-yl)-5-(1-methyl-1H-imidazol-5-yl)phenol] | 55 | 2.51 | 
2 |  | CN1CCC2(CCN(c3ccc(-c4ccc(-n5cccn5)cc4O)nn3)C2)C1 (centres unmarked) [Example 18-5, 2-[6-(7-methyl-2,7-diaza-spiro[4.4]non-2-yl)-pyridazin-3-yl]-5-pyrazol-1-yl-phenol] | 151 | 2.66 | 
3 |  | COc1ccc2cc(-c3ccc(N(C)C4CC(C)(C)NC(C)(C)C4)nn3)c(O)cc2c1 [Example 24-6, 7-methoxy-3-(6-(methyl(2,2,6,6-tetramethylpiperidin-4-yl)amino)pyridazin-3-yl)naphthalen-2-ol] | 6 | 2.39 | 
4 |  | CN(c1ccc(-c2ccc(-c3cnc4n3CCNC4)cc2O)nn1)C1CC(C)(C)NC(C)(C)C1 [Example 42-4, 2-(6-(methyl(2,2,6,6-tetramethylpiperidin-4-yl)amino)pyridazin-3-yl)-5-(5,6,7,8-tetrahydroimidazo[1,2-a]pyrazin-3-yl)phenol] | 853 | 2.41 | 
5 | 2440 | CC1(C)CC(Oc2ccc(-c3cc4ccccc4s3)nn2)CC(C)(C)N1 [Example 1-6, 3-(benzo[b]-thiophen-2-yl)-6-(2,2,6,6-tetra-methylpiperidin-4-yloxy)pyridazine] |  |  | 2.00
6 |  | CN(c1ccc(-c2cc3ccc(OCCC(C)(C)O)cc3cc2O)nn1)C1CC(C)(C)NC(C)(C)C1 [Example 24-12, 7-(3-hydroxy-3-methylbutoxy)-3-(6-(methyl(2,2,6,6-tetramethylpiperidin-4-yl)amino)pyridazin-3-yl)naphthalen-2-ol] | 70 | 2.80 | 
7 |  | CN(c1ccc(-c2c(O)cc(Cl)cc2F)nn1)C1CC(C)(C)NC(C)(C)C1 [Example 40-6, 5-chloro-3-fluoro-2-(6-(methyl(2,2,6,6-tetramethylpiperidin-4-yl)amino)pyridazin-3-yl)phenol] | 208 | 2.16 | 
8 | 2730 | CN1C(C)(C)CC(Nc2ccc(-c3cc4ccccc4s3)nn2)CC1(C)C [Example 7-1, 6-(benzo[b]thiophen-2-yl)-N-(1,2,2,6,6-pentamethylpiperidin-4-yl)pyridazin-3-amine] |  |  | 2.54
9 | 1370 | CC1(C)CC(Nc2ccc(-c3ccc4nonc4c3)nn2)CC(C)(C)N1 [Example 2-1, 6-(benzo[c][1,2,5]oxa-diazol-5-yl)-N-(2,2,6,6-tetramethyl-piperidin-4-yl)pyridazin-3-amine] |  |  | 2.68
10 |  | CN(c1ccc(-c2ccc3nccn3c2)nn1)C1CC(C)(C)NC(C)(C)C1 [Example 1-16, 6-(imidazo[1,2-a]pyridin-6-yl-pyridazin-3-yl)-methyl-(2,2,6,6-tetramethyl-piperidin-4-yl)-amine] | 2980 | 2.28 | 
11 |  | CN(c1ccc(-c2cc(-c3ccnc(O)c3)ccc2O)nn1)C1CC(C)(C)NC(C)(C)C1 [Example 32-7, 4-(4-hydroxy-3-(6-(methyl(2,2,6,6-tetramethylpiperidin-4-yl)amino)pyridazin-3-yl)phenyl)pyridin-2-ol] | 551 | 3.27 | 
12 |  | CN(c1ccc(-c2ccc3cnncc3c2)nn1)C1CC(C)(C)NC(C)(C)C1 [Example 1-22, N-methyl-6-(phthalazin-6-yl)-N-(2,2,6,6-tetramethylpiperidin-4-yl)pyridazin-3-amine] | 867 | 2.71 | 
13 |  | CN(c1ccc(-c2cc3c(cc2O)C(O)CC3)nn1)C1CC(C)(C)NC(C)(C)C1 (centres unmarked) [Example 35-4, 5-(6-(methyl(2,2,6,6-tetramethylpiperidin-4-yl)amino)pyridazin-3-yl)-2,3-dihydro-1H-indene-1,6-diol] | 131 | 2.11 | 
14 |  | CN(c1ccc(-c2ccc(-n3nccc3N)cc2O)nn1)C1CC(C)(C)NC(C)(C)C1 [Example 16-3, 5-(5-amino-1H-pyrazol-1-yl)-2-(6-(methyl-(2,2,6,6-tetramethyl-piperidin-4-yl)amino)pyridazin-3-yl)phenol] | 625 | 2.39 | 
15 |  | Oc1cc2ccccc2cc1-c1ccc(NC2CNC2)nn1 [Example 18-2, 3-[6-(azetidin-3-ylamino)-pyridazin-3-yl]-naphthalen-2-ol] | 3230 | 1.97 | 
16 |  | Cc1cc(-c2ccc(-c3ccc(N(C)C4CC(C)(C)NC(C)(C)C4)nn3)c(O)c2)ccn1 [Example 41-20, 2-(6-(methyl(2,2,6,6-tetramethylpiperidin-4-yl)amino)pyridazin-3-yl)-5-(2-methylpyridin-4-yl)phenol] | 32 | 2.63 | 
17 | 64 | CC1(C)CC(Nc2ccc(-c3cc4ccccc4cc3O)nn2)CC(C)(C)N1 [Example 3-3, 3-(6-(2,2,6,6-tetramethylpiperidin-4-ylamino)pyridazin-3-yl)naphthalen-2-ol] |  |  | 2.48
18 |  | CC1(C)CC(Oc2ccc(-c3ccc(-n4cccn4)cc3O)nn2)CCN1 (centres unmarked) [Example 31-1, 2-(6-((2,2-dimethylpiperidin-4-yl)oxy)pyridazin-3-yl)-5-(1H-pyrazol-1-yl)phenol] | 200 | 3.03 | 
19 |  | CN(c1ccc(-c2ccc(C3=CCOCC3)cc2O)nn1)C1CC(C)(C)NC(C)(C)C1 [Example 41-17, 5-(3,6-dihydro-2H-pyran-4-yl)-2-(6-(methyl(2,2,6,6-tetramethylpiperidin-4-yl)amino)pyridazin-3-yl)phenol] | 170 | 2.88 | 
20 |  | CC1CC(Oc2ccc(-c3ccc(-n4cccn4)cc3O)nn2)CC(C)N1 (single isomer, unassigned) [Example 17-3, 2-(6-((2,6-Dimethylpiperidin-4-yl)oxy)pyridazin-3-yl)-5-(1H-pyrazol-1-yl)phenol] | 183 | 2.75 | 
21 |  | CN1C(C)(C)CC(Oc2ccc(-c3ccc(-n4cccn4)cc3O)nn2)CC1(C)C [Example 17-11, 2-[6-(1,2,2,6,6-pentamethyl-piperidin-4-yloxy)-pyridazin-3-yl]-5-pyrazol-1-yl-phenol] | 665 | 3.01 | 
22 |  | CN(c1ccc(-c2c(O)cc(-c3ccc(=O)n(C)c3)cc2F)nn1)C1CC(C)(C)NC(C)(C)C1 [Example 40-4, 5-(3-fluoro-5-hydroxy-4-(6-(methyl(2,2,6,6-tetramethylpiperidin-4-yl)amino)pyridazin-3-yl)phenyl)-1-methylpyridin-2(1H)-one] | 15 | 2.14 | 
23 |  | Cc1cnc(-c2ccc(-c3ccc(N(C)C4CC(C)(C)NC(C)(C)C4)nn3)c(O)c2)o1 [Example 10-1, 5-(5-methyl-oxazol-2-yl)-2-{6-[methyl-(2,2,6,6-tetramethyl-piperidin-4-yl)-amino]-pyridazin-3-yl}-phenol] | 31 | 2.99 | 
24 |  | CC1CC(Oc2ccc(-c3ccc(-n4cccn4)cc3O)nn2)CC(C)N1 (single isomer, unassigned) [Example 17-4, 2-(6-((2,6-Dimethylpiperidin-4-yl)oxy)pyridazin-3-yl)-5-(1H-pyrazol-1-yl)phenol] | 92 | 3.25 | 
25 |  | CC1(C)CC(Oc2ccc(-c3cc4ccccc4cc3O)nn2)CC(C)(C)N1 [Example 3-6, 3-[6-(2,2,6,6-tetramethyl-piperidin-4-yloxy)-pyridazin-3-yl]-naphthalen-2-ol] | 110 | 3.01 | 
26 |  | CN(c1ccc(-c2cc(-c3cc4ccccc4[nH]3)ccc2O)nn1)C1CC(C)(C)NC(C)(C)C1 [Example 32-4, 4-(1H-indol-2-yl)-2-(6-(methyl(2,2,6,6-tetramethylpiperidin-4-yl)amino)pyridazin-3-yl)phenol] | 168 | 2.09 | 
27 |  | CN(c1ccc(-c2cc(-c3cnn4c3CCCC4)ccc2O)nn1)C1CC(C)(C)NC(C)(C)C1 [Example 32-2, 2-(6-(methyl(2,2,6,6-tetramethylpiperidin-4-yl)amino)pyridazin-3-yl)-4-(4,5,6,7-tetrahydropyrazolo[1,5-a]pyridin-3-yl)phenol] | 396 | 2.49 | 

Row | Structure (SMILES) | EC50 [2] [nM] | EC50 [1] [nM] | SMN activity Fold [1] [Fold] | SMN activity Fold [2] [Fold]
28 | CN(c1ccc(-c2cc3cc(C#N)ccc3s2)nn1)C1CC(C)(C)NC(C)(C)C1 [Example 1-4, 2-(6-(methyl-(2,2,6,6-tetra-methylpiperidin-4-yl)amino)pyridazin-3-yl)benzo[b]-thio-phene-5-carbonitrile] | 90 |  |  | 2.05
